In ChEMBL document CHEMBL1201862, “PubChem BioAssay data set” (2004):
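In this assay, cells in 96-well plates receive the compound at five concentrations for 48 hours. Endpoints are linearly interpolated between the surrounding concentrations. Here, GI50 denotes the concentration required for 50% inhibition of growth.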 Activity calls are given as the source filed them. Rule as the data show it: active = GI50 up to about 1.1 µM and inactive = higher.

Tests used:
Assay in all cases: DTP human tumour cell line panel, 48 h
RXF 631 = tested on: RXF 631
LXFL 529 = tested on: LXFL 529
HOP-18 = tested on: HOP-18
XF498 = tested on: XF498
DMS-273 = tested on: DMS-273
SNB-78 = tested on: SNB-78
M19-MEL = tested on: M19-MEL
MDA-N = tested on: MDA-N
T47D = tested on: T47D

Row | SMILES | GI50 (RXF 631) | GI50 (LXFL 529) | GI50 (HOP-18) | GI50 (XF498) | GI50 (DMS-273) | GI50 (SNB-78) | GI50 (M19-MEL) | GI50 (MDA-N) | GI50 (T47D)
1 | Cc1nc2ccccc2c(=O)n1/N=C(\N=N\c1ccccc1)c1ccccc1Cl | > 71.4 µM (inactive) | 24.3 µM (inactive) | 13.6 µM (inactive) | 18.7 µM (inactive) | 41 µM (inactive) | 30.2 µM (inactive) | > 84.5 µM (inactive) |  | 
2 | CC1=C(C)CC2(SC1)C(=O)c1ccccc1C2=O | > 100 µM (inactive) | > 100 µM (inactive) | > 100 µM (inactive) |  | > 100 µM (inactive) | > 100 µM (inactive) | > 100 µM (inactive) |  | 
3 | Cc1cc(Cl)ccc1N1C(=O)C(=O)C(c2nc3ccccc3s2)C(=O)C1=O | > 100 µM (inactive) | > 100 µM (inactive) | > 100 µM (inactive) | > 100 µM (inactive) | > 100 µM (inactive) | > 100 µM (inactive) |  |  | 
4 | O=C(O/N=C1/CCC/C1=C\c1ccccc1)c1ccc([N+](=O)[O-])cc1 | > 100 µM (inactive) | > 100 µM (inactive) | > 100 µM (inactive) |  | > 100 µM (inactive) | > 100 µM (inactive) | 15.5 µM (inactive) |  | 
5 | Cc1cc2c(cc1C)[n+]([O-])c(C(=O)/C=C/c1ccccc1[N+](=O)[O-])c(C)[n+]2[O-] |  | > 91.6 µM (inactive) | 38.5 µM (inactive) | 22.3 µM (inactive) | 34.1 µM (inactive) | 27 µM (inactive) | > 80 µM (inactive) | > 96.2 µM (inactive) | > 77.3 µM (inactive)
6 | CC[N+](C)(C)c1ccc(C(=C2C=CC(=[N+](C)C)C=C2)c2ccc(N(C)C)cc2)cc1 | 13.4 µM (inactive) | 6.04 µM (inactive) | 6.89 µM (inactive) | 15.8 µM (inactive) | 6.4 µM (inactive) |  | 7.91 µM (inactive) |  | 
7 | CCOC(=O)C1Cc2c(ccc(OC)c2OC)C(=O)C1N (stereo not given) | > 100 µM (inactive) | 94.8 µM (inactive) | 97.5 µM (inactive) | > 100 µM (inactive) | > 100 µM (inactive) | > 100 µM (inactive) | > 100 µM (inactive) |  | 
8 | COc1ccc(/C=C\c2cc(OC)c(OC)c(OC)c2)cc1OC(=O)CC(N)C(=O)O (stereo not given) |  | 0.00191 µM (active) | 0.703 µM (active) | 0.00239 µM (active) | 0.00195 µM (active) | 0.00208 µM (active) | 0.00135 µM (active) | 0.000166 µM (active) | < 0.01 µM (active)
9 | CC(=O)n1c2c(c(=O)n1-c1ccccc1)[S+]([O-])CCC2 (stereo not given) | 97.1 µM (inactive) | 28.7 µM (inactive) |  | > 76.7 µM (inactive) | 23.2 µM (inactive) | 85.9 µM (inactive) | 29.6 µM (inactive) |  | 
10 | COc1cc(-c2cc(CCC(=O)Nc3ccccc3[N+](=O)[O-])n(-c3ccc([N+](=O)[O-])cc3[N+](=O)[O-])n2)ccc1O | > 10 µM (inactive) | 44.7 µM (inactive) | > 10 µM (inactive) | > 100 µM (inactive) | > 10 µM (inactive) | > 10 µM (inactive) | > 10 µM (inactive) |  | 
11 | CC(CNCCCNCCNCCCNCO)[N+](=O)[O-] (stereo not given) | 16 µM (inactive) | 3.99 µM (inactive) | 14.7 µM (inactive) | 16.1 µM (inactive) | 16.5 µM (inactive) | 20.6 µM (inactive) |  |  | 
12 | CC(=O)CN(Cc1cc(C)c2c(c1)c1ccccc1n2Cc1ccccc1)S(=O)(=O)c1ccc(C)cc1 | > 100 µM (inactive) | > 100 µM (inactive) | > 100 µM (inactive) | > 100 µM (inactive) | > 100 µM (inactive) | > 100 µM (inactive) | > 100 µM (inactive) |  | 
13 | Clc1ccc(SC(/C=C/NNC2=NN=C(c3ccccc3)C(c3ccccc3)N2)c2ccccc2)cc1 (stereo not given) | 25 µM (inactive) |  |  | 18.7 µM (inactive) | 26.2 µM (inactive) | 32.7 µM (inactive) | 36.5 µM (inactive) |  | 
